# Assay results as given in patent publication US9650334B2 (AbbVie Deutschland GmbH & Co. KG, priority 2013, dated 2017).
# Molecular target: T1, human GlyT1c transporter (Homo sapiens, UniProt P48067)
# T1 sequence (P48067 1-706): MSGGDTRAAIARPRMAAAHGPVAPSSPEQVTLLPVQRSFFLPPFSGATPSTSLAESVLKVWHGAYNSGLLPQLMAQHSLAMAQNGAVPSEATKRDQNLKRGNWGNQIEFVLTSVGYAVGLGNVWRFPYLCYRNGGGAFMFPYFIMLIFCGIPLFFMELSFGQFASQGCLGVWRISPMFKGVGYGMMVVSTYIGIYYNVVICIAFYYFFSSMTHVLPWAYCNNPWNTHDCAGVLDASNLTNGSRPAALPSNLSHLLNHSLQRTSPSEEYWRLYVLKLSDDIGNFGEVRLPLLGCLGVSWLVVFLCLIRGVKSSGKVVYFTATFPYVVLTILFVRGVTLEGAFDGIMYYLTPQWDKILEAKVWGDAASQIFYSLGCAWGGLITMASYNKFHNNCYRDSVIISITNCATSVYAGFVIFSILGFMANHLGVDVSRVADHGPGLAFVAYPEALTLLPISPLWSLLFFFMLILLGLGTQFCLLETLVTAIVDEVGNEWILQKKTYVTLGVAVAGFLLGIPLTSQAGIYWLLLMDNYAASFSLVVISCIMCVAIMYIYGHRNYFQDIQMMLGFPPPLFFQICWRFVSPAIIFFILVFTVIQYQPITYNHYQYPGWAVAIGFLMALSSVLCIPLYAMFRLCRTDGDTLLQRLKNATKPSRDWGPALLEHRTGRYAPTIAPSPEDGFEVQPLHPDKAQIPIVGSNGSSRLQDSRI
# Test: Radioligand binding assays using recombinant CHO cell membranes expressing human GlyT1
# Settings: Ki, radioligand binding to human GlyT1c transporter-expressing CHO cell membranes
row,Ki [nM],SMILES
1,≤ 10000,"Cn1cnc(S(=O)(=O)N2CC3CCCN(C(=O)c4cccc(C(F)(F)F)c4Cl)C3C2)c1 (stereo not shown) [Example 874, [2-chloro-3-(trifluoromethyl)phenyl]{6-[(1-methyl-1H-imidazol-4-yl)sulfonyl]octahydro-1H-pyrrolo[3,4-b]pyridin-1-yl}methanone]"
2,≤ 10000,"Cc1cccc(C(N[C@H]2CN(S(=O)(=O)c3cn(C)cn3)C[C@@H]2c2ccc(F)cc2)C(F)(F)F)c1 (stereo partly drawn) [Example 875, (3R,4S)-4-(4-fluorophenyl)-1-[(1-methyl-1H-imidazol-4-yl)sulfonyl]-N-[2,2,2-trifluoro-1-(3-methylphenyl)ethyl]pyrrolidin-3-amine]"
3,≤ 1000,"Cc1ccc(C(N[C@H]2CN(S(=O)(=O)c3cn(C)cn3)C[C@@H]2c2ccc(F)cc2)C(F)(F)F)cc1 (stereo partly drawn) [Example 876, (3R,4S)-4-(4-fluorophenyl)-1-[(1-methyl-1H-imidazol-4-yl)sulfonyl]-N-[2,2,2-trifluoro-1-(4-methylphenyl)ethyl]pyrrolidin-3-amine]"
4,≤ 1000,"Cn1cnc(S(=O)(=O)N2CC3CCCN(Cc4ccc(C(F)(F)F)cc4Cl)C3C2)c1 (stereo not shown) [Example 879, 1-[2-chloro-4-(trifluoromethyl)benzyl]-6-[(1-methyl-1H-imidazol-4-yl)sulfonyl]octahydro-1H-pyrrolo[3,4-b]pyridine]"
5,≤ 1000,"Cn1cnc(S(=O)(=O)N2CC3CCCN(C(=O)c4ccc(C(F)(F)F)cc4Cl)C3C2)c1 (stereo not shown) [Example 880, [2-chloro-4-(trifluoromethyl)phenyl]{6-[(1-methyl-1H-imidazol-4-yl)sulfonyl]octahydro-1H-pyrrolo[3,4-b]pyridin-1-yl}methanone]"
6,≤ 1000,"Cn1cnc(S(=O)(=O)N2CC(C(=O)NCc3ccc(F)c(Cl)c3)C3(CCCCC3)C2)c1 (stereo not shown) [Example 881, N-(3-chloro-4-fluorobenzyl)-2-[(1-methyl-1H-imidazol-4-yl)sulfonyl]-2-azaspiro[4.5]decane-4-carboxamide]"
7,≤ 1000,"Cn1cnc(S(=O)(=O)N2CC(C(=O)NCc3ccc(F)c(F)c3)C3(CCCCC3)C2)c1 (stereo not shown) [Example 882, N-(3,4-difluorobenzyl)-2-[(1-methyl-1H-imidazol-4-yl)sulfonyl]-2-azaspiro[4.5]decane-4-carboxamide]"
8,≤ 10000,"Cn1cnc(S(=O)(=O)N2C[C@H](c3ccc(F)cc3)[C@@H](N3C(=O)Cc4ccccc43)C2)c1 [Example 883, 1-{(3R,4S)-4-(4-fluorophenyl)-1-[(1-methyl-1H-imidazol-4-yl)sulfonyl]pyrrolidin-3-yl}-1,3-dihydro-2H-indol-2-one]"
9,≤ 100,"Cn1cnc(S(=O)(=O)N2CC3CCCCC3(NCc3ccc(C(F)(F)F)cc3)C2)c1 (stereo not shown) [Example 884, 2-[(1-methyl-1H-imidazol-4-yl)sulfonyl]-N-[4-(trifluoromethyl)benzyl]octahydro-3aH-isoindol-3a-amine]"
10,≤ 1000,"Cn1cnc(S(=O)(=O)N2CC(COc3ccc(F)cc3)C(c3ccccn3)C2)c1 (stereo not shown) [Example 886, 2-{4-[(4-fluorophenoxy)methyl]-1-[(1-methyl-1H-imidazol-4-yl)sulfonyl]pyrrolidin-3-yl}pyridine]"
11,≤ 100,"Cn1cnc(S(=O)(=O)N2CC(Nc3cccc(OC(F)(F)F)c3)c3ccccc32)c1 (stereo not shown) [Example 887, 1-[(1-methyl-1H-imidazol-4-yl)sulfonyl]-N-[3-(trifluoromethoxy)phenyl]-2,3-dihydro-1H-indol-3-amine]"
12,≤ 1000,"Cn1cnc(S(=O)(=O)N2CC3c4ccccc4CCC3(Oc3cc(C(F)(F)F)ncn3)C2)c1 (stereo not shown) [Example 888, 2-[(1-methyl-1H-imidazol-4-yl)sulfonyl]-3a-{[6-(trifluoromethyl)pyrimidin-4-yl]oxy}-2,3,3a,4,5,9b-hexahydro-1H-benzo[e]isoindole]"
13,≤ 100,"Cn1cnc(S(=O)(=O)N2CC3c4ccccc4CCC3(NCc3ccc(F)cc3)C2)c1 (stereo not shown) [Example 889, N-(4-fluorobenzyl)-2-[(1-methyl-1H-imidazol-4-yl)sulfonyl]-1,2,3,4,5,9b-hexahydro-3aH-benzo[e]isoindol-3a-amine]"
14,≤ 100,"Cn1cc(S(=O)(=O)N2CC3c4ccccc4CC3(Nc3cc(C(F)(F)F)ncn3)C2)nn1 (stereo not shown) [Example 891, 2-[(1-methyl-1H-1,2,3-triazol-4-yl)sulfonyl]-N-[6-(trifluoromethyl)pyrimidin-4-yl]-2,3,3a,8-tetrahydroindeno[1,2-c]pyrrol-8a(1H)-amine]"
15,≤ 100,"CN1CCCCC1C1CN(S(=O)(=O)c2cn(C)cn2)CC1NC1CCc2ccccc21 (stereo not shown) [Example 893, N-(2,3-dihydro-1H-inden-1-yl)-1-[(1-methyl-1H-imidazol-4-yl)sulfonyl]-4-(1-methylpiperidin-2-yl)pyrrolidin-3-amine]"
16,≤ 10,"CN1CCCCC1C1CN(S(=O)(=O)c2cn(C)cn2)CC1Nc1cccc(OCC(F)(F)F)c1 (stereo not shown) [Example 894, 1-[(1-methyl-1H-imidazol-4-yl)sulfonyl]-4-(1-methylpiperidin-2-yl)-N-[3-(2,2,2-trifluoroethoxy)phenyl]pyrrolidin-3-amine]"
17,≤ 10,"Cn1cnc(S(=O)(=O)N2CC(Nc3cccc(OC(F)(F)F)c3)C(c3ccc(F)cn3)C2)c1 (stereo not shown) [Example 895, 4-(5-fluoropyridin-2-yl)-1-[(1-methyl-1H-imidazol-4-yl)sulfonyl]-N-[3-(trifluoromethoxy)phenyl]pyrrolidin-3-amine]"
18,≤ 10,"Cn1cc(S(=O)(=O)N2C[C@H](Nc3cccc(OC(F)(F)F)c3)[C@@H](C3OCCCO3)C2)nn1 [Example 896, (3R,4S)-4-(1,3-dioxan-2-yl)-1-[(1-methyl-1H-1,2,3-triazol-4-yl)sulfonyl]-N-[3-(trifluoromethoxy)phenyl]pyrrolidin-3-amine]"
19,≤ 10,"CN1CCCCC1C1CN(S(=O)(=O)c2cn(C)cn2)CC1Nc1cccc(OC(F)(F)F)c1 (stereo not shown) [Example 898, 1-[(1-methyl-1H-imidazol-4-yl)sulfonyl]-4-(1-methylpiperidin-2-yl)-N-[3-(trifluoromethoxy)phenyl]pyrrolidin-3-amine]"
20,≤ 100,"Cn1cnc(S(=O)(=O)N2C[C@H](Nc3cccc(OCC(F)(F)F)c3)[C@@H](C3OCCCO3)C2)c1 [Example 899, (3R,4S)-4-(1,3-dioxan-2-yl)-1-[(1-methyl-1H-imidazol-4-yl)sulfonyl]-N-[3-(2,2,2-trifluoroethoxy)phenyl]pyrrolidin-3-amine]"
21,≤ 1000,"Cn1cnc(S(=O)(=O)N2C[C@H](Nc3cccc(OC(F)(F)F)c3)[C@@H](C3OCC(C)(C)CO3)C2)c1 [Example 900, (3R,4S)-4-(5,5-dimethyl-1,3-dioxan-2-yl)-1-[(1-methyl-1H-imidazol-4-yl)sulfonyl]-N-[3-(trifluoromethoxy)phenyl]pyrrolidin-3-amine]"
22,≤ 1000,"Cn1cnc(S(=O)(=O)N2C[C@H](Nc3cccc(OC(F)(F)F)c3)[C@@H](C3OCCO3)C2)c1 [Example 902, (3R,4S)-4-(1,3-dioxolan-2-yl)-1-[(1-methyl-1H-imidazol-4-yl)sulfonyl]-N-[3-(trifluoromethoxy)phenyl]pyrrolidin-3-amine]"
23,≤ 10,"Cn1cnc(S(=O)(=O)N2C[C@H](NC3CCc4ccccc43)[C@@H](C3OCCCO3)C2)c1 (stereo partly drawn) [Example 903, (3R,4S)-N-(2,3-dihydro-1H-inden-1-yl)-4-(1,3-dioxan-2-yl)-1-[(1-methyl-1H-imidazol-4-yl)sulfonyl]pyrrolidin-3-amine]"
24,≤ 10,"Cn1cnc(S(=O)(=O)N2C[C@H](NCc3ccc(C(F)(F)F)cc3Cl)[C@@H](C3OCCCO3)C2)c1 [Example 904, (3R,4S)-N-[2-chloro-4-(trifluoromethyl)benzyl]-4-(1,3-dioxan-2-yl)-1-[(1-methyl-1H-imidazol-4-yl)sulfonyl]pyrrolidin-3-amine]"
25,≤ 1000,"Cn1cnc(S(=O)(=O)N2C[C@H](NCc3cccc(OC(F)(F)F)c3)[C@@H](C3OCCCO3)C2)c1 [Example 905, (3R,4S)-4-(1,3-dioxan-2-yl)-1-[(1-methyl-1H-imidazol-4-yl)sulfonyl]-N-[3-(trifluoromethoxy)benzyl]pyrrolidin-3-amine]"
26,≤ 1000,"Cn1cnc(S(=O)(=O)N2C[C@H](NCc3ccc(F)cc3)[C@@H](C3OCCCO3)C2)c1 [Example 906, (3R,4S)-4-(1,3-dioxan-2-yl)-N-(4-fluorobenzyl)-1-[(1-methyl-1H-imidazol-4-yl)sulfonyl]pyrrolidin-3-amine]"

row,SMILES,Ki [nM]
1,"Cn1cnc(S(=O)(=O)N2[C@@H]3CC[C@H]2[C@H](c2ccc(F)cc2)[C@H]3Nc2ccc(F)c(C(F)(F)F)c2)c1 [Example 877, (1R,2R,3R,4S)-3-(4-fluorophenyl)-N-[4-fluoro-3-(trifluoromethyl)phenyl]-7-[(1-methyl-1H-imidazol-4-yl)sulfonyl]-7-azabicyclo[2.2.1]heptan-2-amine]",≤ 10000
2,"Cn1cnc(S(=O)(=O)N2C3CCC2C(c2ccc(F)cc2)C3Nc2ccc(F)c(C(F)(F)F)c2)c1 (stereo not shown) [Example 878, 3-(4-fluorophenyl)-N-[4-fluoro-3-(trifluoromethyl)phenyl]-7-[(1-methyl-1H-imidazol-4-yl)sulfonyl]-7-azabicyclo[2.2.1]heptan-2-amine]",≤ 10000
